The record followed here is patent US20100016338A1, “5-[(3,3,3-Trifluoro-2-hydroxy-1-arylpropyl)amino]-1-arylquinolin-2-ones, a Process for their Production and their Use as Anti-inflammatory Agents” (BAYER SCHERING PHARMA AKTIENGESELLSCHAFT, priority 2008, published 2010).

pIC50: −log10 of the molar value.

The target in assay [1] is T1, glucocorticoid receptor (GR) (Homo sapiens, UniProt P04150).
T1 construct: made in house; host or cells: Sf9 insect cells infected with recombinant baculovirus; cytosol preparation
T1 sequence (P04150 1-777): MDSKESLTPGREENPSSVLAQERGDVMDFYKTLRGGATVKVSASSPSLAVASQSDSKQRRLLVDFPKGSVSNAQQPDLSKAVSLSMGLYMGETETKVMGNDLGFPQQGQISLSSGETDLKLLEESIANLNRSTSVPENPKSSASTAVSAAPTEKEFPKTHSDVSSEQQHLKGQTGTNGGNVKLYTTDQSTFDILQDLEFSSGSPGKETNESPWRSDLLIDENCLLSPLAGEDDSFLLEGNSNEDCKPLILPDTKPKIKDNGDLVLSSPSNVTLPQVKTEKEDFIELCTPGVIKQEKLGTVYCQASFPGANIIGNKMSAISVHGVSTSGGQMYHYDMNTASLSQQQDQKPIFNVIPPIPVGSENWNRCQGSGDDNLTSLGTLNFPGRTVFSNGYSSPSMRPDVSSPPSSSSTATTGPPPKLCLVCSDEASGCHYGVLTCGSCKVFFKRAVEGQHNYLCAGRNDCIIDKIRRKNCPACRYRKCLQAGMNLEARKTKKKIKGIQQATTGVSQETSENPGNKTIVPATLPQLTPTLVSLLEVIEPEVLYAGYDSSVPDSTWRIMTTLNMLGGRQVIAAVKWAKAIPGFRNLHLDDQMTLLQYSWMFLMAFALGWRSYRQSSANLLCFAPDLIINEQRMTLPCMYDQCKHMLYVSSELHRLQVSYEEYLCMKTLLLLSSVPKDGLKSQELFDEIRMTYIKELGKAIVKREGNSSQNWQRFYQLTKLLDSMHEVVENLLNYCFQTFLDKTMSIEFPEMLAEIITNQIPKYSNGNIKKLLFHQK
In words: binding to the glucocorticoid receptor (recombinant receptor, cytosol of baculovirus-infected Sf9 cells). The text has this:
The binding of the substances to the glucocorticoid receptor (GR) and other steroid hormone receptors (mineral corticoid receptor (MR), progesterone receptor (PR) and androgen receptor (AR)) is examined with the aid of recombinantly produced receptors. Cytosol preparations of Sf9 cells, which had been infected with recombinant baculoviruses, which code for the GR, are used for the binding studies.

For assay [2], the system named is cytokine IL-8 secretion, human monocyte cell line THP-1. In words: inhibition of LPS-triggered IL-8 secretion in THP-1 cells (ELISA). In kind it is cell-based. To be noted: in comparison with dexamethasone as reference. As for the experimental part: The concentration of the cytokines was determined in the supernatant by means of commercially available ELISA kits.
(An ELISA detects its analyte on a solid surface through an enzyme-linked reagent.)

`COCC(O)(C(Nc1cc(F)cc2c1ccc(=O)n2-c1ccc(F)nc1)c1ccc(OC)c(F)c1Cl)C(F)(F)F` (centres unmarked) [Example 2, 5-{[1-(2-Chloro-3-fluoro-4-methoxyphenyl)-3,3,3-trifluoro-2-hydroxy-2-(methoxymethyl)propyl]amino}-7-fluoro-1-(6-fluoropyridin-3-yl)-1H quinolin-2-one]: the pIC50 (commonly the IC50 on a negative log10 scale, so that one unit is a factor of ten) in assay [1] is 8.20. For the same compound, in assay [2], the “efficacy of IL-8 inhibition” value came to 107%.
